Laboratory results reported in US20110160196A1, “FACTOR XA INHIBITORS” (Millennium Pharmaceuticals, Inc., priority 2007, published 2011).

molecular target: T1, human plasma protein factor Xa (Homo sapiens, UniProt P00742); test: Factor Xa IC50 determination (cleavage of paranitroanilide substrate S-2765); type: biochemical; settings: factor Xa 1 nM, S-2765 100 μM, Tris buffered saline pH 7.4, read at 405 nm
T1 construct: The human plasma protein factor Xa was purchased; purchased Haematologic Technologies (Essex Junction, Vt.); host or cells: human plasma
Summary of the method: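 Human plasma factor Xa (1 nM) preincubated 5 min at room temperature with inhibitor (0.01 nM–10 μM) in Tris-buffered saline pH 7.4 with 5 mM CaCl2, 0.1% BSA, 5% DMSO. S-2765 added at 100 μM final; pNA release followed at 405 nm for 2 min. IC50 from four-parameter fit of initial velocities.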

T1 sequence (P00742 235-488 limits assumed): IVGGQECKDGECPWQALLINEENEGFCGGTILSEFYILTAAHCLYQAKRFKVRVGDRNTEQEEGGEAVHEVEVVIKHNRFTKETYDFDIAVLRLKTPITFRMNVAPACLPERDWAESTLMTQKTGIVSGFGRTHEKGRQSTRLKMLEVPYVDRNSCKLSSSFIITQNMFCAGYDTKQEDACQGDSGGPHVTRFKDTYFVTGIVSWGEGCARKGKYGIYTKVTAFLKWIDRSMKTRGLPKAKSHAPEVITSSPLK
T1 sequence (P00742 41-179 partner limits assumed): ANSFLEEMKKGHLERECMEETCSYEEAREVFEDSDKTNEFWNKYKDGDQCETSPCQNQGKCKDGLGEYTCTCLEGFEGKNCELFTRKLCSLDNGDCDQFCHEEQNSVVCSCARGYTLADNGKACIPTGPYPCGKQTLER

Question: `O=C1CN(Cc2cc(-n3ccccc3=O)ccc2-n2cc(CNC(=O)c3ccc(Cl)s3)nn2)CCN1` [Compound 161, 5-Chloro-N-((1-(2-((3-oxopiperazin-1-yl)methyl)-4-(2-oxopyridin-1(2H)-yl)phenyl)-1H-1,2,3-triazol-4-yl)methyl)thiophene-2-carboxamide] was tested. Which IC50 did it give?
Answer: Its IC50 is at most 100 nM.

Question: How did the IC50 turn out when `O=C(NCc1cn(-c2ccc(-n3ccccc3=O)cc2CN2CCSCC2)nn1)c1ccc(Cl)s1` [Compound 162, 5-Chloro-N-((1-(4-(2-oxopyridin-1(2H)-yl)-2-(thiomorpholinomethyl)phenyl)-1H-1,2,3-triazol-4-yl)methyl)thiophene-2-carboxamide] was run?
Answer: The IC50 was at most 100 nM.

Question: Which IC50 does the source give for `O=C(NCc1cn(-c2ccc(-n3ccccc3=O)cc2CN2CCS(=O)(=O)CC2)nn1)c1ccc(Cl)s1` [Compound 163, 5-Chloro-N-((1-(4-(2-oxopyridin-1(2H)-yl)-2-(1,1,- dioxothiomorpholinomethyl)phenyl)-1H-1,2,3-triazol-4-yl)methyl)thiophene-2-carboxamide] here?
Answer: The IC50 was at most 100 nM.

Question: Which IC50 does the source give for `CCOc1cc(-n2ccccc2=O)ccc1-n1cc(CNC(=O)c2ccc(Cl)s2)nn1` [Compound 164, 5-Chloro-N-((1-(2-ethoxy-4-(2-oxopyridin-1(2H)-yl)phenyl)-1H-1,2,3-triazol-4-yl)methyl)thiophene-2-carboxamide] here?
Answer: Its IC50 is at most 100 nM.

Question: With `O=C(NCc1cn(-c2ccc(-n3ccccc3=O)cc2OCc2cccnc2)nn1)c1ccc(Cl)s1` [Compound 165, 5-Chloro-N-((1-(4-(2-oxopyridin-1(2H)-yl)-2-(pyridin-3-ylmethoxy)phenyl)-1H-1,2,3-triazol-4-yl)methyl)thiophene-2-carboxamide] as the molecule, how does the IC50 read?
Answer: The IC50 was at most 100 nM.

Question: Which IC50 does the source give for `O=C(NCc1cn(-c2ccc(-n3ccccc3=O)cc2OCc2ccncc2)nn1)c1ccc(Cl)s1` [Compound 167, 5-Chloro-N-((1-(4-(2-oxopyridin-1(2H)-yl)-2-(pyridin-4-ylmethoxy)phenyl)-1H-1,2,3-triazol-4-yl)methyl)thiophene-2-carboxamide] here?
Answer: Its IC50 is at most 100 nM.

Question: Which IC50 does the source give for `O=C(NCc1cn(-c2ccc(-n3ccccc3=O)cc2OCCc2ccccn2)nn1)c1ccc(Cl)s1` [Compound 168, 5-Chloro-N-((1-(4-(2-oxopyridin-1(2H)-yl)-2-(2-(pyridin-2-yl)ethoxy)phenyl)-1H-1,2,3-triazol-4-yl)methyl)thiophene-2-carboxamide] here?
Answer: The IC50 was at most 100 nM.

Question: For `O=C(NCc1cn(-c2ccc(-n3ccccc3=O)cc2OCc2ccccn2)nn1)c1ccc(Cl)s1` [Compound 169, 5-Chloro-N-((1-(4-(2-oxopyridin-1(2H)-yl)-2-(pyridin-2-ylmethoxy)phenyl)-1H-1,2,3-triazol-4-yl)methyl)thiophene-2-carboxamide], which IC50 is on record?
Answer: Its IC50 is at most 100 nM.

Question: For `O=C(NCc1cn(-c2ccc(-n3ccccc3=O)cc2OCc2ccc3ccccc3n2)nn1)c1ccc(Cl)s1` [Compound 170, 5-Chloro-N-((1-(4-(2-oxopyridin-1(2H)-yl)-2-(quinolin-2-ylmethoxy)phenyl)-1H-1,2,3-triazol-4-yl)methyl)thiophene-2-carboxamide], which IC50 is on record?
Answer: Its IC50 is at most 100 nM.

Question: Which IC50 does the source give for `O=C(NCc1cn(-c2ccc(-n3ccccc3=O)cc2OCc2cscn2)nn1)c1ccc(Cl)s1` [Compound 171, 5-Chloro-N-((1-(4-(2-oxopyridin-1(2H)-yl)-2-(thiazol-4-ylmethoxy)phenyl)-1H-1,2,3-triazol-4-yl)methyl)thiophene-2-carboxamide] here?
Answer: Its IC50 is at most 100 nM.

Question: Which IC50 does the source give for `Cc1nc(COc2cc(-n3ccccc3=O)ccc2-n2cc(CNC(=O)c3ccc(Cl)s3)nn2)cs1` [Compound 172, 5-Chloro-N-((1-(2-((2-methylthiazol-4-yl)methoxy)-4-(2-oxopyridin-1(2H)-yl)phenyl)-1H-1,2,3-triazol-4-yl)methyl)thiophene-2-carboxamide] here?
Answer: The IC50 was at most 100 nM.

Question: Which IC50 does the source give for `O=C(NCc1cn(-c2ccc(-n3ccccc3=O)cc2OCc2nc3ccccc3[nH]2)nn1)c1ccc(Cl)s1` [Compound 173, N-((1-(2-((1H-Benzo[d]imidazol-2-yl)methoxy)-4-(2-oxopyridin-1(2H)-yl)phenyl)-1H-1,2,3-triazol-4-yl)methyl)-5-chlorothiophene-2-carboxamide] here?
Answer: The IC50 was at most 100 nM.

Question: Which IC50 does the source give for `O=C(NCc1cn(-c2ccc(-n3ccccc3=O)cc2OCCc2cccnc2)nn1)c1ccc(Cl)s1` [Compound 174, 5-Chloro-N-((1-(4-(2-oxopyridin-1(2H)-yl)-2-(2-(pyridin-3-yl)ethoxy)phenyl)-1H-1,2,3-triazol-4-yl)methyl)thiophene-2-carboxamide] here?
Answer: The IC50 was at most 100 nM.

Question: How did the IC50 turn out when `O=C(NCc1cn(-c2ccc(-n3ccccc3=O)cc2OCc2ncon2)nn1)c1ccc(Cl)s1` [Compound 175, N-((1-(2-((1,2,4-Oxadiazol-3-yl)methoxy)-4-(2-oxopyridin-1(2H)-yl)phenyl)-1H-1,2,3-triazol-4-yl)methyl)-5-chlorothiophene-2-carboxamide] was run?
Answer: Its IC50 is at most 100 nM.

Question: With `Cn1ccnc1COc1cc(-n2ccccc2=O)ccc1-n1cc(CNC(=O)c2ccc(Cl)s2)nn1` [Compound 176, 5-Chloro-N-((1-(2-((1-methyl-1H-imidazol-2-yl)methoxy)-4-(2-oxopyridin-1(2H)-yl)phenyl)-1H-1,2,3-triazol-4-yl)methyl)thiophene-2-carboxamide] as the molecule, how does the IC50 read?
Answer: The IC50 was at most 100 nM.

Question: How did the IC50 turn out when `O=C(NCc1cn(-c2ccc(-n3ccccc3=O)cc2OCc2ncc[nH]2)nn1)c1ccc(Cl)s1` [Compound 177, N-((1-(2-((1H-Imidazol-2-yl)methoxy)-4-(2-oxopyridin-1(2H)-yl)phenyl)-1H-1,2,3-triazol-4-yl)methyl)-5-chlorothiophene-2-carboxamide] was run?
Answer: Its IC50 is at most 100 nM.

Question: How did the IC50 turn out when `O=C(NCc1cn(-c2ccc(-n3ccccc3=O)cc2OCc2nccn2Cc2ncc[nH]2)nn1)c1ccc(Cl)s1` [Compound 178, N-((1-(2-((1-((1H-imidazol-2-yl)methyl)-1H-imidazol-2-yl)methoxy)-4-(2-oxopyridin-1(2H)-yl)phenyl)-1H-1,2,3-triazol-4-yl)methyl)-5-chlorothiophene-2-carboxamide] was run?
Answer: Its IC50 is at most 100 nM.

Question: For `Cc1cc(COc2cc(-n3ccccc3=O)ccc2-n2cc(CNC(=O)c3ccc(Cl)s3)nn2)no1` [Compound 179, 5-Chloro-N-((1-(2-((5-methylisoxazol-3-yl)methoxy)-4-(2-oxopyridin-1(2H)-yl)phenyl)-1H-1,2,3-triazol-4-yl)methyl)thiophene-2-carboxamide], which IC50 is on record?
Answer: Its IC50 is at most 100 nM.

Question: How did the IC50 turn out when `O=C(NCc1cn(-c2ccc(-n3ccccc3=O)cc2OCCn2cccc2)nn1)c1ccc(Cl)s1` [Compound 180, N-((1-(2-(2-(1H-Pyrrol-1-yl)ethoxy)-4-(2-oxopyridin-1(2H)-yl)phenyl)-1H-1,2,3-triazol-4-yl)methyl)-5-chlorothiophene-2-carboxamide] was run?
Answer: Its IC50 is at most 100 nM.
